Results taken from patent publication US10071983B2, “Activatable fluorogenic compounds and uses thereof as near infrared probes” (Ramot at Tel-Aviv University Ltd., priority 2011, dated 2018).

Key:
[1] = NIR fluorescence emission spectrum of dye compounds; format: physicochemical; details: for λmax: Table 1, λmax (fluorescence emission)
Source text: (§1) Compound 1 (which generates the dye compound QCy7 deprotonation) was obtained as an orange crystalline powder. FIGS. 4A and 4B present the UV-Vis spectrum of Compound 1 (FIG. 4A), compared to that of the acetate Compound 3 (FIG. 4B). […] The obtained large stokes shift between the excitation and the emission wavelengths of about 150 nm is a desirable feature for fluorescence probes, which assists in increasing the signal-to-noise ratio.
(§2) FIG. 5 presents the data obtained for fluorescence intensity vs. wavelength of standard sample (Cresyl violet; FIG. 5A), and test sample (QCy7; FIG. 5B), at the indicated concentrations. The measurements were performed in a 1 cm cuvette using Fluoromax-3 fluorometer; at an excitation wavelength of 560 nm. Cresyl violet was dissolved in methanol and Compound 1 in PBS 7.4 (just generating QCy7).
(§3) FIG. 8 presents the data obtained for fluorescence intensity vs. wavelength of standard sample (QCy7; FIG. 8A), and test sample (Sulfo-QCy7, generated from Compound 9; FIG. 8B), at the indicated concentrations. The measurements were performed at a 96-wells plate reader using Fluoromax-3 fluorometer; at an excitation wavelength of 560 nm. Both samples were dissolved in PBS 7.4.

[2] = test system: endogenously produced hydrogen peroxide; test: In vivo imaging of endogenous hydrogen peroxide, LPS-induced acute inflammation; design: species or system Balb/c mice
Description: To induce acute inflammation in Balb/c mice, 1 ml (0.1 mg/ml) of LPS (Lipopolysaccharides from Escherichia coli 055:B5, Sigma) was injected into the peritoneal cavity of Balb/c mice as previously described [Lee, D. et al. Nat. Mater. 6, 765-769 (2007)]. Six hours later, additional i.p. injections of 400 μl of 1 mM of the tested probe compound or PBS (as control) were performed. Second control group of mice was injected i.p. with 1 ml of PBS followed by additional i.p. injection of 400 μl PBS. Fifteen minutes later, mice were anesthetized using ketamine (100 mg/kg) and xylazine (12 mg/kg), treated with a depilatory cream (Veet®), and placed inside CRI Maestro non-invasive fluorescence imaging system. Multispectral image-cubes were acquired through 600-800 nm spectral range in 10 nm steps using excitation (595 nm) and emission (635 nm longpass) filter set. Mice autofluorescence and undesired background signals were eliminated by spectral analysis and linear unmixing algorithm. Activated probe-fluorescence unmixed specific signal was quantified as total signal of photons/exposure time (sec). Data is expressed as mean±s.d.
The, the use of probe Compound 4 for visualizing endogenously-produced hydrogen peroxide was tested. […] Mater. 6, 765-9 (2007)]. Mice were injected intraperitoneally (i.p.) with LPS (1 ml of 0.1 mg/ml), followed 6 hours later by additional i.p. injection of probe Compound 4 (400 μl of 1 mM) and were thereafter imaged by the CRI Maestro™ non-invasive fluorescence imaging system.

[3] = NIR fluorescence emission spectrum of dye compounds; format: physicochemical; details: PBS 7.4 [50 μM], excitation 570 nm, cutting filter >690 nm
[4] = In vivo imaging of exogenous hydrogen peroxide (premixed probe injected); design: species or system mice
Description: Initially, as a simple control experiment, a premixed solution of probe 4 with hydrogen peroxide was injected into the peritoneal cavity, and the mice were imaged in a CRI Maestro™ non-invasive fluorescence imaging system.
Next, it was tested whether probe Compound 4 can be used to differentiate in vivo various concentrations of hydrogen peroxide in order to test the system's sensitivity. Therefore, two different concentrations of hydrogen peroxide were premixed with probe Compound 4; immediately injected intramuscularly, into the leg, and then imaged by the CRI Maestro™ non-invasive fluorescence imaging system.

[5] = NIR fluorescence assay of probe Compound 4 with hydrogen peroxide
Description: In order to evaluate the NIR fluorescence obtained by probe Compound 4 upon reaction with hydrogen peroxide under physiological conditions, the probe was incubated in PBS 7.4 at 37° C., in the presence and absence of hydrogen peroxide at varying concentrations, and the emitted NIR fluorescence was measured by a spectrophotometer (M2 of Molecular Device). The results, presented in FIG. 20A, indicate full conversion of probe Compound 4 to sulfo-QCy7 within 30 minutes (red plot).
The sensitivity of probe Compound 4 towards detection of hydrogen peroxide was then evaluated.

[6] = UV-Vis absorption spectrum of dye compounds; format: physicochemical; details: for λmax: Table 1, first λmax column (absorption peaks)
Source text: as §1
Compound 14 is composed from a phenol latent donor and two different acceptors; a picolinium moiety and an indolium moiety (see, Scheme 3). Deprotonation of the phenolic dye leads to formation of new donor-acceptor pair fluorochrome.
Compound 18 is composed of a phenol latent donor and two identical acceptors based on a picolinium moiety (see, Scheme 4). Deprotonation of the phenolic form leads to formation of new donor-acceptor pair fluorochrome.
Compound 25 is composed of a phenol latent donor and three acceptors; two picolinium moieties and one indolium moiety (see, Scheme 5). Deprotonation of the phenolic compound leads to formation of three resonance donor-two-acceptor structures of new fluorochrome.
The chemical 2D structures and spectroscopic data obtained for exemplary dye molecules according to embodiments of the present invention are presented in Table 1.

[7] = pKa measurement by UV-Vis absorbance as a function of pH; format: physicochemical; details: buffers at the indicated pH; 50 μM in buffers, phenol form
Description: The pKa values of exemplary compounds according to some embodiments of the present invention, Compounds 14, 18 and 25, was measured by monitoring their UV-Vis absorbance as a function of the environment pH. The tested compounds, at a concentration of 50 μM were dissolved in the respective buffers at the indicated pH and their absorbance was measured.

[8] = Fluorescence quantum yield calculation against a reference dye; format: physicochemical; details: PBS 7.4
Description: Cresyl-violet-perchlorate (as presented hereinbelow) was chosen as a reference compound for the determination of QCy7 quantum yield.
as §2
Conversion to the absolute quantum yield is achieved through the following equation: ΦX=ΦST(GradX/GradST)(η^2X/η^2ST) where the subscripts ST and X denote standard and test respectively, Φ is the fluorescence quantum yield, Grad the gradient from the plot of integrated fluorescence intensity vs. absorbance (see, FIG. 6), and η the refractive index of the solvents. ΦCresyl-violet=0.55 [Stefan et al. ([…]) J. Phys. Chem. 86, 1738-1742].
QCy7 was chosen as a reference compound for the determination of Sulfo-QCy7 quantum yield.
as §3
The absolute quantum yield was calculated as described hereinabove and found to be: […]

[9] = Aqueous stability in PBS 7.4 at 37° C., NIR emission over 72 hours; format: physicochemical; details: PBS 7.4 [25 μM]
Description: The aqueous stability of the cyanine-like dye compound presented herein was tested and compared to that of the cyanine molecule Cy7.
All tested compounds were incubated in PBS 7.4 [25 μM], at 37° C., and their NIR fluorescent emission was monitored over 72 hours. FIG. 15 presents the normalized intensity of NIR fluorescent emission of dyes generated from Compound 9 (green circles; Sulfo-QCy7), Compound 14 (blue diamonds), Compound 18 (red squares), Compound 25 (orange triangles) and Compound 1 (blank navy squares; QCy7) as a function of incubation time.

Row | λmax [1] | quantum yield [8] | Compound | other results
1 | – | – | CC(=O)Oc1ccc(/C=C/C2=[N+](C)c3ccccc3C2(C)C)cc1/C=C/C1=[N+](C)c2ccccc2C1(C)C [Compound 3] | fluorescence emission in the NIR region of masked derivative ([1]; PBS 7.4 [100 μM], λex=560 nm): did not show any fluorescence emission in the NIR region
2 | – | – | CC1(C)C(/C=C/c2ccc(OCc3ccc(B(O)O)cc3)c(/C=C/C3=[N+](CCCS(=O)(=O)[O-])c4ccccc4C3(C)C)c2)=[N+](CCCS(=O)(=O)[O-])c2ccccc21 [Compound 4] | signal-to-noise ratio of NIR fluorescence intensity vs control group ([2]; LPS i.p., probe 400 μl of 1 mM i.p. 6 hours later): about 10 fold; NIR fluorescence signal, LPS-treated vs non-LPS treated mice ([2]; LPS i.p., probe i.p. 6 hours later): significantly greater intensity of NIR fluorescence signal; NIR fluorescence in mice treated only with probe ([2]; no LPS): slight NIR fluorescence; appearance under NIR imaging camera [3]: clearly transparent; NIR fluorescence in vivo, probe premixed with hydrogen peroxide ([4]; injected into the peritoneal cavity): can generate NIR fluorescence in vivo image; NIR fluorescence in vivo, probe only ([4]; injected into the peritoneal cavity, no hydrogen peroxide): did not show any detectable NIR fluorescence; dependence of NIR fluorescence intensity on hydrogen peroxide concentration in vivo ([4]; premixed, injected intramuscularly into the leg): dependent on the hydrogen peroxide initial concentration; NIR fluorescence in the absence of hydrogen peroxide ([5]; PBS 7.4, 37° C.): No NIR fluorescence is observed; time to full conversion of probe to sulfo-QCy7 ([5]; probe [50 μM], hydrogen peroxide [50 μM], PBS 7.4, 37° C.): ≤ 30 min; detectable hydrogen peroxide concentration ([5]; probe [100 μM]): below 1 μM
3 | 720 nm | – | C[n+]1ccc(/C=C/c2ccc(O)c(/C=C/c3cc[n+](C)cc3)c2)cc1.[I-].[I-] [Compound 10] | –
4 | 730 nm | – | C[n+]1ccc(/C=C/c2ccc(O)c(/C=C/c3cc[n+](C)cc3C#N)c2)c(C#N)c1.[I-].[I-] [Compound 11] | –
5 | No fluores- cence | – | C[n+]1ccc(/C=C/c2ccc(O)c(/C=C/c3cc[n+](C)c4ccccc34)c2)c2ccccc21.[I-].[I-] [Compound 13] | λmax [6]: 550 nm
6 | No fluores- cence | – | CC(C)(C)c1cc(/C=C/c2ccc(O)c(/C=C/c3cc(C(C)(C)C)[o+]c(C(C)(C)C)c3)c2)cc(C(C)(C)C)[o+]1 [Compound 15] | –
7 | 730 nm | – | C[n+]1ccc(/C=C/c2cc(/C=C/c3cc(C(C)(C)C)[o+]c(C(C)(C)C)c3)ccc2O)cc1.I [Compound 16] | λmax [6]: 580 nm
8 | 730 nm | 2.6% | C[n+]1ccc(/C=C/c2ccc(O)c(/C=C/c3cc[n+](C)cc3S(=O)(=O)[O-])c2)c(S(=O)(=O)[O-])c1 [Compound 17] | –
9 | 660 nm | – | CCOC(=O)c1cc(/C=C/c2cc[n+](C)cc2)c(O)c(/C=C/c2cc[n+](C)cc2)c1 [Compound 19] | –
10 | No fluores- cence | – | CCOC(=O)c1cc(/C=C/c2cc[n+](C)c3ccccc23)c(O)c(/C=C/c2cc[n+](C)c3ccccc23)c1 [Compound 20] | –
11 | 730 nm | – | CCOC(=O)c1cc(/C=C/c2cc[n+](C)cc2C#N)c(O)c(/C=C/c2cc[n+](C)cc2C#N)c1 [Compound 21] | –
12 | 650 nm | 7% | C[n+]1ccc(/C=C/c2cc(C=O)cc(/C=C/c3cc[n+](C)cc3)c2O)cc1 [Compound 22] | –
13 | 600 nm | – | C[n+]1ccc(/C=C/c2cc([N+](=O)[O-])cc(/C=C/c3cc[n+](C)cc3)c2O)cc1 [Compound 23] | –
14 | 720 nm | 2.9% | C[n+]1ccc(/C=C/c2cc(Br)cc(/C=C/c3cc[n+](C)cc3)c2O)cc1 [Compound 27] | –
15 | 700 nm | 2% | C[n+]1ccc(/C=C/c2cc(C(=O)O)cc(/C=C/c3cc[n+](C)cc3)c2O)cc1 [Compound 29] | –
16 | 710 nm | 16% | CC1(C)C(/C=C/c2cc(/C=C/C3=[N+](CCCS(=O)(=O)[O-])c4ccccc4C3(C)C)c(O)c(/C=C/C3=[N+](CCCS(=O)(=O)[O-])c4ccccc4C3(C)C)c2)=[N+](CCCS(=O)(=O)[O-])c2ccccc21 [Compound 30] | –
17 | 720 nm | – | C[n+]1ccc(/C=C/c2cc(/C=C/c3cc[n+](C)cc3)c(O)c(/C=C/c3cc[n+](C)cc3)c2)cc1.I.I [Compound 31] | –

Row | Compound | λmax [1] | quantum yield [8] | other results
18 | C[n+]1ccc(/C=C/c2ccc(O)c(/C=C/c3cc[n+](C)cc3[N+](=O)[O-])c2)c([N+](=O)[O-])c1.[I-].[I-] [Compound 12] | No fluores- cence | – | λmax [6]: 350 nm
19 | C[n+]1ccc(/C=C/c2cc(/C=C/C3=[N+](CCCS(=O)(=O)[O-])c4ccccc4C3(C)C)ccc2O)cc1.[I-] [Compound 14] | 650 nm | 17% | pKa [7]: 2.9; fluorescence emission peak in the NIR region ([1]; PBS 7.4): 680 nm; aqueous stability compared with Cy7 [9]: increase aqueous stability than that of Cy7; loss of NIR fluorescence during incubation period [9]: did not show any loss of NIR fluorescence; UV-Vis absorption peak maximum ([6]; PBS 7.4): 550 nm
